This note sets out measurements from BindingDB's records for doi:10.1021/acs.jmedchem.8b00629 (Ludwig-Maximilians-University Munich, 2018).

The IC50 is the concentration at which inhibition is half-maximal.

Experiment [1] in a line: Inhibition of mouse GAT3 expressed in HEK293 cells assessed as reduction in [3H]GABA uptake preincubated for 25 mins followed by [3H]GABA addition measured after 4 mins by liquid scintillation counting analysis.
The nature of experiment [2]: Inhibition of mouse GAT2 expressed in HEK293 cells assessed as reduction in [3H]GABA uptake preincubated for 25 mins followed by [3H]GABA addition measured after 4 mins by liquid scintillation counting analysis.

Regarding `O=C(O)[C@@H]1CCCN(CCC#Cc2ccc(/N=N/c3cccc4ccccc34)cc2)C1`, the concentration for half-maximal inhibition (IC50) in experiment [1] and in experiment [2] was more than 100 µM throughout.
For the molecule `O=C(O)[C@@H]1CCCN(CCC#Cc2ccc(/N=N/c3ccccc3)cc2)C1`, the concentration for half-maximal inhibition (IC50) in experiment [1] and in experiment [2] was more than 100 µM each time.
As for `O=C(O)[C@@H]1CCCN(CCC#Cc2cccc(/N=N/c3ccccc3)c2)C1`, the IC50 in experiment [1] and in experiment [2] was more than 100 µM in each case.
For `O=C(O)[C@@H]1CCCN(CCC#Cc2cccc(/N=N/c3cccc4ccccc34)c2)C1`, the IC50 in experiment [1] and in experiment [2] was more than 100 µM throughout.
